Among the test systems are HCT-116; IGROV-1; LOX IMVI; UO-31; Malme-3M; CAKI-1; RPMI-8226; OVCAR-4; SN12C; BT-549; EKVX; HL-60; OVCAR-3; SF-268; T47D; ACHN; RXF 393; NCI-H226; HCC 2998; SK-OV-3.
Common to all, as to test: inhibition of tumour cell growth, NCI panel, 48 h

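Where inhibition never reached the appropriate level, the endpoint shown equals the highest concentration tested. Otherwise, values were interpolated linearly from a five-concentration, 48-hour dose response in 96-well plates. GI50 = concentration required for 50% inhibition of growth.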 The source made the active and inactive calls. No stated cut-off is given here; in the data, active = GI50 up to about 1.1 µM and inactive = higher.

Regarding `C[C@@H](C(=O)O)N1C(c2ccco2)=C(/C(C=O)=C\c2ccco2)C(=O)/C1=C\c1ccco1`, the GI50 in the test on HCT-116, in the test on IGROV-1, in the test with LOX IMVI, in the test with UO-31, in the test on Malme-3M and in the test with CAKI-1 was > 100 µM (inactive) throughout. The GI50 with RPMI-8226, in the test on OVCAR-4, in the test on SN12C, in the test with BT-549, in the test on EKVX and with HL-60 was > 100 µM (inactive) each time. Moreover, the GI50 in the test on OVCAR-3, in the test on SF-268, in the test on T47D, with ACHN and in the test with RXF 393 was > 100 µM (inactive) each time.
For `CN1C(=O)C(O)CC1c1ccccc1F` (stereo not drawn), the GI50 in the test on HCT-116, in the test on IGROV-1, with NCI-H226, with LOX IMVI, with UO-31 and with HCC 2998 was > 100 µM (inactive) each time. Also, the GI50 with Malme-3M, in the test with CAKI-1, in the test on RPMI-8226, with OVCAR-4, with SN12C and in the test on BT-549 was > 100 µM (inactive) in each case. In addition, the GI50 with EKVX, in the test with HL-60, in the test on OVCAR-3, in the test with ACHN and with RXF 393 was > 100 µM (inactive) throughout.
As to `CCCCSC1=N/C(=C\c2ccc(N(C)C)cc2)C(=O)N1`, the GI50 was 25 µM (inactive) with HCT-116; 35.3 µM (inactive) with IGROV-1; 41.2 µM (inactive) in the test on SK-OV-3; 18 µM (inactive) with NCI-H226; 28.6 µM (inactive) with LOX IMVI; 38.4 µM (inactive) in the test on Malme-3M. Moreover, the GI50 with CAKI-1 is 35.6 µM (inactive); in the test with RPMI-8226, 16.7 µM (inactive); in the test with OVCAR-4, 21 µM (inactive); with SN12C it was 16.3 µM (inactive); in the test on BT-549 it was > 100 µM (inactive); in the test with EKVX, 19.1 µM (inactive). Moreover, the GI50 was 82.8 µM (inactive) with HL-60; 27 µM (inactive) in the test with OVCAR-3; 32.8 µM (inactive) with SF-268; 18.7 µM (inactive) with T47D; 29.8 µM (inactive) in the test on ACHN; 30 µM (inactive) in the test on RXF 393.
With `Nc1nc(Cl)c(/C=N\O)c(NCC2(CO)CC(=O)C2)n1`, the GI50 was 88.7 µM (inactive) with HCT-116; 23.2 µM (inactive) with IGROV-1; > 100 µM (inactive) with NCI-H226; 45.8 µM (inactive) with LOX IMVI; 47.4 µM (inactive) in the test on UO-31; > 100 µM (inactive) with HCC 2998. Further, the GI50 was 33.7 µM (inactive) with Malme-3M; 75.3 µM (inactive) in the test with CAKI-1; 3.33 µM (inactive) in the test on RPMI-8226; 84.3 µM (inactive) with OVCAR-4; > 100 µM (inactive) with SN12C; 51.5 µM (inactive) in the test on BT-549. The GI50 is > 100 µM (inactive) in the test with EKVX; 5.33 µM (inactive) in the test on HL-60; 60.1 µM (inactive) with OVCAR-3; > 100 µM (inactive) with SF-268; 62.1 µM (inactive) in the test on ACHN; 39.4 µM (inactive) in the test with RXF 393.
In the case of `N#Cc1c(N)[nH]c(=S)c(C#N)c1-c1cccc(Cl)c1`, the GI50 was 24.4 µM (inactive) in the test with HCT-116; 32.9 µM (inactive) in the test on IGROV-1; 19.9 µM (inactive) with NCI-H226; 39.9 µM (inactive) in the test with LOX IMVI; 32.8 µM (inactive) with UO-31; 15.6 µM (inactive) in the test with HCC 2998. Also, the GI50 with Malme-3M was 56.1 µM (inactive); in the test with CAKI-1, 65.8 µM (inactive); in the test with RPMI-8226, 23.8 µM (inactive); with OVCAR-4 it was 40.7 µM (inactive); with SN12C it was 20.4 µM (inactive); with BT-549 it was 39.5 µM (inactive). Further, the GI50 in the test with EKVX was 25.6 µM (inactive); with HL-60, 23.2 µM (inactive); with OVCAR-3, 26.9 µM (inactive); in the test with SF-268, 21.8 µM (inactive); in the test with ACHN, 61.1 µM (inactive); in the test with RXF 393, 22.4 µM (inactive).
For the molecule `COc1ccc(N2C(=O)c3cc(C)cnc3S2(=O)=O)cc1`, the GI50 in the test with HCT-116, with IGROV-1, in the test on SK-OV-3, in the test with NCI-H226, in the test on LOX IMVI and in the test on UO-31 was > 100 µM (inactive) in each case. Further, the GI50 in the test on HCC 2998, with Malme-3M, with RPMI-8226, in the test with OVCAR-4, with SN12C and with BT-549 was > 100 µM (inactive) in each case. In addition, the GI50 in the test with EKVX, with HL-60, in the test with OVCAR-3, with SF-268, in the test on ACHN and with RXF 393 was > 100 µM (inactive) in each case.
Consider `O=C(ON=c1c2ccccc2ccc2ccccc12)c1cc([N+](=O)[O-])cc([N+](=O)[O-])c1`, for which the GI50 is 87.3 µM (inactive) in the test on HCT-116; > 100 µM (inactive) with IGROV-1; > 100 µM (inactive) in the test with SK-OV-3; > 100 µM (inactive) with NCI-H226; 90.2 µM (inactive) with LOX IMVI; 48 µM (inactive) in the test on UO-31. In addition, the GI50 in the test on HCC 2998 is 75.2 µM (inactive); in the test with Malme-3M, 16.8 µM (inactive); with RPMI-8226 it was 48.5 µM (inactive); in the test with OVCAR-4, 38.2 µM (inactive); with SN12C, 67.1 µM (inactive); with BT-549, 54.8 µM (inactive). The GI50 was 89.9 µM (inactive) with EKVX; 28 µM (inactive) in the test on HL-60; 94.6 µM (inactive) in the test on OVCAR-3; > 100 µM (inactive) in the test with SF-268; 45.4 µM (inactive) in the test on ACHN; > 100 µM (inactive) in the test on RXF 393.
As to `COC(=O)c1cccc2c1Oc1ccccc1S2`, the GI50 in the test with HCT-116 is 47.1 µM (inactive); with IGROV-1 it was 56.2 µM (inactive); in the test on SK-OV-3, > 100 µM (inactive); in the test on NCI-H226 it was 37.4 µM (inactive); in the test on LOX IMVI it was > 100 µM (inactive); in the test with UO-31, 31.8 µM (inactive). Moreover, the GI50 with CAKI-1 is 14.5 µM (inactive); with RPMI-8226, 61.1 µM (inactive); in the test with OVCAR-4, 66.4 µM (inactive); in the test with SN12C it was 56.6 µM (inactive); in the test on BT-549, 60.3 µM (inactive); in the test on EKVX, 39.4 µM (inactive). Besides, the GI50 with HL-60 was 8.18 µM (inactive); in the test with OVCAR-3, > 100 µM (inactive); in the test on SF-268 it was 38.8 µM (inactive); in the test on T47D, 32.3 µM (inactive); with ACHN, 61.2 µM (inactive); in the test with RXF 393 it was 33 µM (inactive).
As to `Oc1ccc2oc3c(O)c4ccccc4cc3c2c1`, the GI50 in the test on HCT-116 was 0.296 µM (active); in the test with IGROV-1, 0.851 µM (active); in the test on SK-OV-3, 16.2 µM (inactive); in the test with LOX IMVI, 4.08 µM (inactive); in the test on UO-31 it was 0.695 µM (active); in the test on Malme-3M it was 11.4 µM (inactive). Further, the GI50 in the test with CAKI-1 is 5.32 µM (inactive); with RPMI-8226 it was 1.31 µM (inactive); in the test on OVCAR-4, 1.93 µM (inactive); with SN12C, 2.36 µM (inactive); in the test on BT-549, 5.61 µM (inactive); in the test with HL-60, 2.28 µM (inactive). The GI50 in the test with OVCAR-3 was 3.53 µM (inactive); with SF-268, 5.87 µM (inactive); in the test with T47D, 20.3 µM (inactive); with ACHN, 2.12 µM (inactive); in the test with RXF 393, 2.44 µM (inactive).
Turning to `NC(=S)N/N=c1\cc(C(=O)Nc2ccc([N+](=O)[O-])cc2[N+](=O)[O-])oc2ccccc12`, the GI50 in the test on HCT-116 is > 100 µM (inactive); in the test on IGROV-1, > 100 µM (inactive); with SK-OV-3 it was 99.5 µM (inactive); in the test with NCI-H226, 88.9 µM (inactive); in the test on LOX IMVI it was > 100 µM (inactive); with UO-31, 29.8 µM (inactive). Besides, the GI50 in the test on HCC 2998 is > 100 µM (inactive); with CAKI-1 it was 75.2 µM (inactive); with OVCAR-4, > 100 µM (inactive); in the test with SN12C it was > 100 µM (inactive); in the test with BT-549, > 100 µM (inactive); in the test on EKVX, 49.8 µM (inactive). In addition, the GI50 in the test on HL-60 is > 100 µM (inactive); with OVCAR-3 it was 85.5 µM (inactive); in the test on SF-268, > 100 µM (inactive); with ACHN, > 100 µM (inactive); in the test with RXF 393 it was > 100 µM (inactive).
Regarding `N#Cc1cc(N(CCCl)CCCl)c([N+](=O)[O-])cc1[N+](=O)[O-]`, the GI50 in the test on HCT-116 is > 100 µM (inactive); with IGROV-1 it was > 100 µM (inactive); in the test with SK-OV-3 it was > 100 µM (inactive); in the test on LOX IMVI, 98.2 µM (inactive); in the test on UO-31, > 100 µM (inactive); with Malme-3M it was 60.8 µM (inactive). The GI50 with CAKI-1 was 11.1 µM (inactive); with RPMI-8226 it was 38.2 µM (inactive); in the test on OVCAR-4, > 100 µM (inactive); in the test on SN12C, 48 µM (inactive); in the test with BT-549 it was > 100 µM (inactive); in the test with EKVX, > 100 µM (inactive). For the same molecule, the GI50 in the test on HL-60 was 22.3 µM (inactive); in the test with OVCAR-3 it was > 100 µM (inactive); with SF-268 it was > 100 µM (inactive); in the test with T47D it was 11.4 µM (inactive); in the test with ACHN, 18.1 µM (inactive).
